Experimental data taken from ChEMBL document CHEMBL5465560, “Selectivity Literature for EUbOPEN Chemogenomic Library” (2024).

Experiments:
[1] = biological target: T1, Tyrosine-protein kinase TXK (Homo sapiens) (UniProt P42681); assay: Selectivity interaction (ProQinase) EUB0000171b TXK
T1 sequence (whole entry): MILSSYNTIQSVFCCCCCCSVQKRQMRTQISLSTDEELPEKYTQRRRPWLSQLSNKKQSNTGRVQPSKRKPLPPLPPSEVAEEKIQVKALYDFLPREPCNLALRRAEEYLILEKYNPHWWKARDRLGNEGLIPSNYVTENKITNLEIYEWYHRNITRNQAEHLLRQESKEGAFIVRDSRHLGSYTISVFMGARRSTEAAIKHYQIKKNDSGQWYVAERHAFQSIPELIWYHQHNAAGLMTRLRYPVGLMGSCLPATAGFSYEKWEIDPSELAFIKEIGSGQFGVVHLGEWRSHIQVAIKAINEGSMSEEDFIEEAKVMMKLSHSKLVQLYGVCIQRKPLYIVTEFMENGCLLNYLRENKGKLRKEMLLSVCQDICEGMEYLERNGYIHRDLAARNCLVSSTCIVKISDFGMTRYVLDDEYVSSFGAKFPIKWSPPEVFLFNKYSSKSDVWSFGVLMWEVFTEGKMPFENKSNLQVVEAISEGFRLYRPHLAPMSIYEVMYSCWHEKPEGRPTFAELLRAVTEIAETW

Aurora kinase B = Aurora kinase B (Homo sapiens, UniProt Q96GD4); assay: Selectivity interaction (KinomeScan (DiscoverX)) EUB0001619a AURKB; details: at 1 µM
Aurora kinase B, sequence (Q96GD4 whole entry): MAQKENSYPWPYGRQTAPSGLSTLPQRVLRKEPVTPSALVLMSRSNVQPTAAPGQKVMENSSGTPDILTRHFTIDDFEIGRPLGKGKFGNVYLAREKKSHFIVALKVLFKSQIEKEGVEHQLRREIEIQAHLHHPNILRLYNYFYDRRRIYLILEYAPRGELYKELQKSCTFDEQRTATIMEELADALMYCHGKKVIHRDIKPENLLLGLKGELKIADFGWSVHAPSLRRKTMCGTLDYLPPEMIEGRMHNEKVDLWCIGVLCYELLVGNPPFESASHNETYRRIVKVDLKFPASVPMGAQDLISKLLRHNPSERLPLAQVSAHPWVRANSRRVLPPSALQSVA

[2] = biological target: Tyrosine-protein kinase ABL1 (Homo sapiens, UniProt P00519); assay: Selectivity interaction (ActivX KiNativ screen (kinase selectivity in THP-1 cell lysates)) EUB0000639a ABL1; type: subcellular; details: lysate, at 1 µM
Tyrosine-protein kinase ABL1, sequence (P00519 whole entry): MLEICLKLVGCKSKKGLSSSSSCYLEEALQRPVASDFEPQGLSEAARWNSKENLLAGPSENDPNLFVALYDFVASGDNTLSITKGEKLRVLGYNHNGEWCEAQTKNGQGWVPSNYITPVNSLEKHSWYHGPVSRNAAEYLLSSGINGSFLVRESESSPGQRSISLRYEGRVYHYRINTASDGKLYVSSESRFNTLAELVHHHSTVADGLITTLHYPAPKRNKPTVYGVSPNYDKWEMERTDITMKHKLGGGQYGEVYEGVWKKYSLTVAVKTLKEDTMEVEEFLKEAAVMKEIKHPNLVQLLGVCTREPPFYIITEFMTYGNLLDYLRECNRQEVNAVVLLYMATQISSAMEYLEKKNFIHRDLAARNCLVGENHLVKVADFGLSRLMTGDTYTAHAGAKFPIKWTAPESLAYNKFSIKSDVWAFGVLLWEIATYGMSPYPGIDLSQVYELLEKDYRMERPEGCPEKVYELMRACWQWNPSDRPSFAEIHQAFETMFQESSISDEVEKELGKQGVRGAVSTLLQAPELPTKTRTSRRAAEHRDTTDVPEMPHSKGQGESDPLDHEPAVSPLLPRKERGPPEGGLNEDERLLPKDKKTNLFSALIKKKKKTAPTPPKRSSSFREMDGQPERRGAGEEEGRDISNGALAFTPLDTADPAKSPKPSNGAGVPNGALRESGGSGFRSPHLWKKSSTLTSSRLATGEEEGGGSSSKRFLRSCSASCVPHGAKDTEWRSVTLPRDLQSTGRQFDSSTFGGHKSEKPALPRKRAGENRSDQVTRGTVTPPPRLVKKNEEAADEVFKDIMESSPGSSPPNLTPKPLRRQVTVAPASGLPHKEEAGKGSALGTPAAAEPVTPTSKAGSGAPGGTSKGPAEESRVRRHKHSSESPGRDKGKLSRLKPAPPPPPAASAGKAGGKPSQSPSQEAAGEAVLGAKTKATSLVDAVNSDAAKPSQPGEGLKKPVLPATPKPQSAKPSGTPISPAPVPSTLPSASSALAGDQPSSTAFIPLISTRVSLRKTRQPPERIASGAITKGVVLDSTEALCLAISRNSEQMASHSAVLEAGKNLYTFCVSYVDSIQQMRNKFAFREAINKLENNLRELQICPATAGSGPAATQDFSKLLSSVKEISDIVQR

[3] = biological target: Ribosomal protein S6 kinase alpha-3 (Homo sapiens, UniProt P51812); assay: Selectivity interaction (ActivX KiNativ screen (kinase selectivity in THP-1 cell lysates)) EUB0000639a RPS6KA3; type: subcellular; details: lysate, at 0.2 µM
Ribosomal protein S6 kinase alpha-3, sequence (P51812 whole entry): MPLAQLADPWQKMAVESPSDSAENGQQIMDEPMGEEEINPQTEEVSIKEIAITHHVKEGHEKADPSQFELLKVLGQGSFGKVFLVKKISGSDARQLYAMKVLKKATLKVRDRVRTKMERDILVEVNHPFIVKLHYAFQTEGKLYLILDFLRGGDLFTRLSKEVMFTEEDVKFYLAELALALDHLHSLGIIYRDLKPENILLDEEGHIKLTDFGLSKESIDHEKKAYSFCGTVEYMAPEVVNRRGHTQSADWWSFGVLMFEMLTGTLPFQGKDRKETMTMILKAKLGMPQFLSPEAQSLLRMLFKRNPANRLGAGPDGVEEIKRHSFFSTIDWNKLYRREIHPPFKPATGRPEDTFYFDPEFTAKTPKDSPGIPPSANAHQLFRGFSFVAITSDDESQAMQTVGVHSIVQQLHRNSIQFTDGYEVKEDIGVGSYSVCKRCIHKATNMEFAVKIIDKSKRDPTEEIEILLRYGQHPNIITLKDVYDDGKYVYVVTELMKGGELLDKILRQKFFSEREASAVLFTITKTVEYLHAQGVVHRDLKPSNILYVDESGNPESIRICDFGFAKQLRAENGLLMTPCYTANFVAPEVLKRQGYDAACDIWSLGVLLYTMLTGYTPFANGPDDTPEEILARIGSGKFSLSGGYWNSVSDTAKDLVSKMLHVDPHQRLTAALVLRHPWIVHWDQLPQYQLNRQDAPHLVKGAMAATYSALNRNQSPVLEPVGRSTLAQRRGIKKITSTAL

[4] = biological target: Serine/threonine-protein kinase PAK 3 (Homo sapiens) (UniProt O75914); assay: Selectivity interaction (KinomeScan (DiscoverX)) EUB0000655a PAK3; details: at 10 µM
Serine/threonine-protein kinase PAK 3 (Homo sapiens), sequence (O75914 whole entry, looked up, the tested form may be a part): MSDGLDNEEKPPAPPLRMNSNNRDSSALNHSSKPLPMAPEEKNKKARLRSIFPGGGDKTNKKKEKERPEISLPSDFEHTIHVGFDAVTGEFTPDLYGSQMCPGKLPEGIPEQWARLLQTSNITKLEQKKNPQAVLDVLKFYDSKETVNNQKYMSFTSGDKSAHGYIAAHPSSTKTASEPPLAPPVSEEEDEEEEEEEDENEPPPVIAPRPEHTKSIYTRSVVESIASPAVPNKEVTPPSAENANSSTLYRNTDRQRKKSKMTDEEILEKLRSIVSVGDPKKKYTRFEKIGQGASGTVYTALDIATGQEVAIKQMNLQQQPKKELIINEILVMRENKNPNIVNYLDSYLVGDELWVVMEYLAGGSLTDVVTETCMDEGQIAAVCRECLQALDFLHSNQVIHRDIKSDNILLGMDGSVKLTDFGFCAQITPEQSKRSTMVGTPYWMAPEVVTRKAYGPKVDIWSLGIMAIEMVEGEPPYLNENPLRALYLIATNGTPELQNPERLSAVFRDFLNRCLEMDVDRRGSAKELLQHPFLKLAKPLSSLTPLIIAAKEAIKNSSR

[5] = biological target: T2, Phosphatidylinositol 3-kinase C2 domain-containing subunit gamma (Homo sapiens) (UniProt O75747); assay: Selectivity interaction (Ambit KINOMEscan and KiNATiv profiling in Jurkat cells) EUB0000090b PIK3C2G; type: cell-based; details: at 1 µM
T2 sequence (whole entry): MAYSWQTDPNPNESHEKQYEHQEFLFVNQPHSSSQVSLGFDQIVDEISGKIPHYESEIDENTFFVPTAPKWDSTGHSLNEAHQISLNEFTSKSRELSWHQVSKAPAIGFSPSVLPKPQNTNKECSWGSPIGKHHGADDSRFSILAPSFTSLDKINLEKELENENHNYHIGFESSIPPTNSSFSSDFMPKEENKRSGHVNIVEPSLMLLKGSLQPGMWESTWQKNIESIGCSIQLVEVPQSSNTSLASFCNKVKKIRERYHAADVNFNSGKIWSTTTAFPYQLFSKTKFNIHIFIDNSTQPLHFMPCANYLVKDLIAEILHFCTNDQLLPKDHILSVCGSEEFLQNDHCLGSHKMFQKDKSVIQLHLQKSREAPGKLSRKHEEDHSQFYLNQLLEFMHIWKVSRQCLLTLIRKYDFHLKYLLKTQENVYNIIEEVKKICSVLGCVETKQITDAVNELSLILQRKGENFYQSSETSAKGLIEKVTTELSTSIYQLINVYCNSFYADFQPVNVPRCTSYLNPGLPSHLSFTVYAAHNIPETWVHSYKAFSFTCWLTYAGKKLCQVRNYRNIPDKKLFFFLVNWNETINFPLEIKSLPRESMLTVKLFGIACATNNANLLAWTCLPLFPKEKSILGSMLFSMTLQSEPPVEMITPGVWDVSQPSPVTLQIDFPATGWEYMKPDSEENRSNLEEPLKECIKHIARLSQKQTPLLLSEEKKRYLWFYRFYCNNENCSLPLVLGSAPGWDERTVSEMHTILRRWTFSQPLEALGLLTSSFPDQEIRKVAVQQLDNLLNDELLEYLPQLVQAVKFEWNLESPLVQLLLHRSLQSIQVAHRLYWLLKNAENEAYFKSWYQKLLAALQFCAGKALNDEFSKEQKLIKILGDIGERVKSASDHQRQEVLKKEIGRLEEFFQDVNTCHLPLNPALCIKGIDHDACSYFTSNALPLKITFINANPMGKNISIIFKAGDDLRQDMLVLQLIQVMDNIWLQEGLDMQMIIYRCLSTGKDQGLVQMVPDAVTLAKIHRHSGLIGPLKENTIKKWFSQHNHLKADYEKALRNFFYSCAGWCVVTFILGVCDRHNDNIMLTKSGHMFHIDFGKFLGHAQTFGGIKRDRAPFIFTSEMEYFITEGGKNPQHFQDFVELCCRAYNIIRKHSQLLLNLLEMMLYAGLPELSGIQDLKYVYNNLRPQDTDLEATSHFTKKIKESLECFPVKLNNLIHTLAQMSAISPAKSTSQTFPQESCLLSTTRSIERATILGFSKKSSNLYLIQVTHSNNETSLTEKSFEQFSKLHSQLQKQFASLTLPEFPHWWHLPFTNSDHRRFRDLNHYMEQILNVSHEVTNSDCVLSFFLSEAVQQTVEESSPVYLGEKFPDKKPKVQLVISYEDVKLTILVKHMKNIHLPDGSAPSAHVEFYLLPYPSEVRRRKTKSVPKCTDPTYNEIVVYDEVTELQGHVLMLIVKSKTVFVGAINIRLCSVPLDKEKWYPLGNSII

`C=CC(=O)Nc1cccc(C(=O)Nc2ccc(Nc3cc(-c4[nH]c(SC)nc4C)ccn3)cc2)c1` was tested, and the % of control ([1]; at 1 µM) was 87% and the % of control ([1]; at 5 µM) was 77%.
In the case of `N#Cc1cccc(-c2c[nH]c3ncnc(N4CCOCC4)c23)c1`, the % of control (Aurora kinase B) is reported as 26%.
`CC[C@@H]1[C@H](F)C(=O)N[C@@H]1COc1nccc2cc(C(N)=O)c(OC)cc12` [ZIMLOVISERTIB] was tested, and the % of inhibition [2] was -13.2% and the % of inhibition [3] was 15.4%.
With `CN(C)CCOc1ccc(-c2nc(-c3ccncc3)c(-c3ccc4c(c3)CC/C4=N\O)[nH]2)cc1` the % of control [4] was 72%.
Compound `CN(C)C/C=C/C(=O)Nc1ccc(C(=O)N2CCCC(Nc3ncc(Cl)c(-c4c[nH]c5ccccc45)n3)C2)cc1` (configuration not stated) has a % of control [5] of 100%.
